Laboratory results taken from ChEMBL document CHEMBL4507283, “Data for DCP probe BI-1935” (2021).

What was measured:
[1] = target: SRSF protein kinase 2 (Homo sapiens) (UniProt P78362); settings: Compound concentration 1000.0 nM
[2] = target: Proto-oncogene tyrosine-protein kinase ROS (Homo sapiens) (UniProt P08922); settings: Compound concentration 1000.0 nM
[3] = target: MAP kinase-interacting serine/threonine-protein kinase 2 (Homo sapiens) (UniProt Q9HBH9); settings: Compound concentration 1000.0 nM
[4] = target: Serine/threonine-protein kinase TAO2 (Homo sapiens) (UniProt Q9UL54); settings: Compound concentration 1000.0 nM
[5] = target: Phosphatidylinositol 4,5-bisphosphate 3-kinase catalytic subunit gamma isoform (Homo sapiens) (UniProt P48736); settings: Compound concentration 1000.0 nM
[6] = target: Misshapen-like kinase 1 (Homo sapiens) (UniProt Q8N4C8); settings: Compound concentration 1000.0 nM
[7] = target: Leukocyte tyrosine kinase receptor (Homo sapiens) (UniProt P29376); settings: Compound concentration 1000.0 nM
[8] = target: Cyclin-dependent kinase 4 (Homo sapiens) (UniProt P11802); settings: Compound concentration 1000.0 nM
[9] = target: Insulin receptor-related protein (Homo sapiens) (UniProt P14616); settings: Compound concentration 1000.0 nM
[10] = target: Serine/threonine-protein kinase VRK2 (Homo sapiens) (UniProt Q86Y07); settings: Compound concentration 1000.0 nM
[11] = target: Aurora kinase B (Homo sapiens) (UniProt Q96GD4); settings: Compound concentration 1000.0 nM
Aurora kinase B (Homo sapiens), sequence (Q96GD4 whole entry): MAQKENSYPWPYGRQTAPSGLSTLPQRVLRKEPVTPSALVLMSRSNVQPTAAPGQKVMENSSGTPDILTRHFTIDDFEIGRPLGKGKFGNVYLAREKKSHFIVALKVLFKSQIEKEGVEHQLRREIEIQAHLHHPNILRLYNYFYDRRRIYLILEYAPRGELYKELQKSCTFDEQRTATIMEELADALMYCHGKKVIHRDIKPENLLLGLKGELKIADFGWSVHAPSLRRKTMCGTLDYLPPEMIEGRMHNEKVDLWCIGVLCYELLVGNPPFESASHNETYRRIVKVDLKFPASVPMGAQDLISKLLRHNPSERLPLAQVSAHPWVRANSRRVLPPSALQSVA

[12] = target: Serine/threonine-protein kinase NIM1 (Homo sapiens) (UniProt Q8IY84); settings: Compound concentration 1000.0 nM
[13] = target: 5-hydroxytryptamine receptor 1D (Homo sapiens) (UniProt P28221); settings: Compound concentration 10.0 uM
[14] = target: Cyclin-dependent kinase 11B (Homo sapiens) (UniProt P21127); settings: Compound concentration 1000.0 nM
[15] = target: Homeodomain-interacting protein kinase 1 (Homo sapiens) (UniProt Q86Z02); settings: Compound concentration 1000.0 nM
Homeodomain-interacting protein kinase 1 (Homo sapiens), sequence (Q86Z02 whole entry, looked up, canonical isoform): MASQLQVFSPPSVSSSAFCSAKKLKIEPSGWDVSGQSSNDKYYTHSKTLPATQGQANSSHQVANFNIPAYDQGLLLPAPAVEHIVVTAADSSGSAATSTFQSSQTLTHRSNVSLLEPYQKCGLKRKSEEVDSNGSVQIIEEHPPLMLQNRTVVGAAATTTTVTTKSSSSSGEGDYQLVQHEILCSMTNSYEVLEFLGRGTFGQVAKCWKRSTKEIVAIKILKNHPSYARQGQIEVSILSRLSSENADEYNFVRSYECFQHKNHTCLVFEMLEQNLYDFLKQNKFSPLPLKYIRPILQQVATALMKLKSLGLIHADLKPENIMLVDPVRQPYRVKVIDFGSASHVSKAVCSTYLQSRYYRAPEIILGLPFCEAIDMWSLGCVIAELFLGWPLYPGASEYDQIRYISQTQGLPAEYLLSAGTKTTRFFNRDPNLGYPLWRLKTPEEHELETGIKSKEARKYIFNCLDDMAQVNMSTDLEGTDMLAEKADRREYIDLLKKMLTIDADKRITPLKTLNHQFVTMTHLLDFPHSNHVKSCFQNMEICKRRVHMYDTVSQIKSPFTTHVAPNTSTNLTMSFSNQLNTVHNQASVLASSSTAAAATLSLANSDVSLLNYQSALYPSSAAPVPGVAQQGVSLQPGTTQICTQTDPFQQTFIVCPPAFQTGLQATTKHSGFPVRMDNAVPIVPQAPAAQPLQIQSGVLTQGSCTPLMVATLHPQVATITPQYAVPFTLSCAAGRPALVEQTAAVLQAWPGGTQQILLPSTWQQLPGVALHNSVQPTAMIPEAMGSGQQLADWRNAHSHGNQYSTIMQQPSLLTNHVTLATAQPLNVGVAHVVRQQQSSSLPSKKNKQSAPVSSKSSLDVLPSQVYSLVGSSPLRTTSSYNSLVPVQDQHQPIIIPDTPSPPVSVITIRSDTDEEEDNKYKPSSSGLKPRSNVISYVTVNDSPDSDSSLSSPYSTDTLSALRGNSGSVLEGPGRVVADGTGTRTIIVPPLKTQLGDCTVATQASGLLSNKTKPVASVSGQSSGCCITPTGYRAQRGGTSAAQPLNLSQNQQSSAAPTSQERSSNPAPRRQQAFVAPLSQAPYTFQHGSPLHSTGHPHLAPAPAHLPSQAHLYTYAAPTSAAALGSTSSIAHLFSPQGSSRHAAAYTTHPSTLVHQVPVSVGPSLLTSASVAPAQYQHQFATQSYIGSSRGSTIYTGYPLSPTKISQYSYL

[16] = target: Casein kinase I isoform gamma-3 (Homo sapiens) (UniProt Q9Y6M4); settings: Compound concentration 1000.0 nM
[17] = target: Serine/threonine-protein kinase N2 (Homo sapiens) (UniProt Q16513); settings: Compound concentration 1000.0 nM
[18] = target: Amine oxidase [flavin-containing] A (MAO-A) (Homo sapiens, UniProt P21397); test: MAOA Eurofins-Panlabs selectivity data (BI); set-up: mode of action inhibitor; settings: compound concentration 10 uM, read-out: % Ctrl
[19] = target: Serine/threonine-protein kinase DCLK1 (Homo sapiens) (UniProt O15075); settings: Compound concentration 1000.0 nM
[20] = target: Cyclin-dependent kinase 15 (Homo sapiens) (UniProt Q96Q40); settings: Compound concentration 1000.0 nM
[21] = target: Prostaglandin G/H synthase 1 (Homo sapiens) (UniProt P23219); test: COX-1 Eurofins-Panlabs selectivity data (BI); settings: Compound concentration 10.0 uM
[22] = target: Serine/threonine-protein kinase ULK2 (Homo sapiens) (UniProt Q8IYT8); settings: Compound concentration 1000.0 nM
Serine/threonine-protein kinase ULK2 (Homo sapiens), sequence (Q8IYT8 whole entry): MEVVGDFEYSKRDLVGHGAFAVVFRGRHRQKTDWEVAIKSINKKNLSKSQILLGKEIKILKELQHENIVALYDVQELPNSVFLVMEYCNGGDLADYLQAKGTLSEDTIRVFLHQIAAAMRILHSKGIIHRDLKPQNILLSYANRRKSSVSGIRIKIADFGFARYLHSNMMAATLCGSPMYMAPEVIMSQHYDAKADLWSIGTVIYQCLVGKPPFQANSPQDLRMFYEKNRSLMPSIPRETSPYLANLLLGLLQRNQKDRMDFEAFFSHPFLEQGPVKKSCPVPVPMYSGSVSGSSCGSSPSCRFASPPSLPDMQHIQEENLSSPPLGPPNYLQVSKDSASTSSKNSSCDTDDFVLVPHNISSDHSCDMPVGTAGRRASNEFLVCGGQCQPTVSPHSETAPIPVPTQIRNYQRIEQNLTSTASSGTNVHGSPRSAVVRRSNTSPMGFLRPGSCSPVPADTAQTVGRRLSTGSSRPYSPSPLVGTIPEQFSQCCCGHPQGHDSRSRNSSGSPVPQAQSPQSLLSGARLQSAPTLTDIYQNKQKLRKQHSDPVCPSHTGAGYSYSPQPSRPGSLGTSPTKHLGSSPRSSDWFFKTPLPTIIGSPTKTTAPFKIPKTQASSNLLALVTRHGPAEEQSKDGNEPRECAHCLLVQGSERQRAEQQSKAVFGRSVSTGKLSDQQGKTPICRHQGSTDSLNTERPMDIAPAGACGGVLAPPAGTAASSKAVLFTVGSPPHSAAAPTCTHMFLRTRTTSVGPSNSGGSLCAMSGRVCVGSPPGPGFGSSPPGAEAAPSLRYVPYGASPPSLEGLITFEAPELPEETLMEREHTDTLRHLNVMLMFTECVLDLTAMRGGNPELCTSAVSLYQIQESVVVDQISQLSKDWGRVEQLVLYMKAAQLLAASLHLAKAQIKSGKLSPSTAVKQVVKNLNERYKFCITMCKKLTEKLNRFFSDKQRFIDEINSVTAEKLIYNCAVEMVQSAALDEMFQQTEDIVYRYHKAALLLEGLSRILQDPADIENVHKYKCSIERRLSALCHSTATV

[23] = target: Serine/threonine-protein kinase 32C (Homo sapiens) (UniProt Q86UX6); settings: Compound concentration 1000.0 nM
Serine/threonine-protein kinase 32C (Homo sapiens), sequence (Q86UX6 whole entry): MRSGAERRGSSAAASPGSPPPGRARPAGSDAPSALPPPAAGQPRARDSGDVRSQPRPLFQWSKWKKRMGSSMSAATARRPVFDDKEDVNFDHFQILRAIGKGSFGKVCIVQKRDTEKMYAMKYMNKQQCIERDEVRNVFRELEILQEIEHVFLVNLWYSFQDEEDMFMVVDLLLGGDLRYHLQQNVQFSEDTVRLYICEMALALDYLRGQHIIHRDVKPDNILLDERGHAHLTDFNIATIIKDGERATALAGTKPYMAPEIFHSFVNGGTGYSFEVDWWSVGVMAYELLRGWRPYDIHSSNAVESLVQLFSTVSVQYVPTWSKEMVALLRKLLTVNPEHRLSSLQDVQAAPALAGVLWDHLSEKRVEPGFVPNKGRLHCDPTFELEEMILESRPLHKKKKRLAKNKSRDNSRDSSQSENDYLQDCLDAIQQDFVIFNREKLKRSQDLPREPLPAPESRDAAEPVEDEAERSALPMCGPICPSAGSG

[24] = target: Type-2 angiotensin II receptor (Homo sapiens) (UniProt P50052); test: AT2/HU Eurofins-Panlabs selectivity data (BI); settings: Compound concentration 10.0 uM
Type-2 angiotensin II receptor (Homo sapiens), sequence (P50052 whole entry): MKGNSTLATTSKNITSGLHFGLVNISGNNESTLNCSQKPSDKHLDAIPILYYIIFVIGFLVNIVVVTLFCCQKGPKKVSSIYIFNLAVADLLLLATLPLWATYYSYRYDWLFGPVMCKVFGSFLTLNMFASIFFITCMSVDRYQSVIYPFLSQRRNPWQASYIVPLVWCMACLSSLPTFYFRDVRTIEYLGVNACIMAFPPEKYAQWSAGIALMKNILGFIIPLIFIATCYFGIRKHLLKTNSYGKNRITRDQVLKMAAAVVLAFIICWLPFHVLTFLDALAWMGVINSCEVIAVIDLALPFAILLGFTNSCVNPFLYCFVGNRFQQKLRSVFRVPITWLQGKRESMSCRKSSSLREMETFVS

[25] = target: Eukaryotic translation initiation factor 2-alpha kinase 1 (Homo sapiens) (UniProt Q9BQI3); settings: Compound concentration 1000.0 nM
Eukaryotic translation initiation factor 2-alpha kinase 1 (Homo sapiens), sequence (Q9BQI3 whole entry): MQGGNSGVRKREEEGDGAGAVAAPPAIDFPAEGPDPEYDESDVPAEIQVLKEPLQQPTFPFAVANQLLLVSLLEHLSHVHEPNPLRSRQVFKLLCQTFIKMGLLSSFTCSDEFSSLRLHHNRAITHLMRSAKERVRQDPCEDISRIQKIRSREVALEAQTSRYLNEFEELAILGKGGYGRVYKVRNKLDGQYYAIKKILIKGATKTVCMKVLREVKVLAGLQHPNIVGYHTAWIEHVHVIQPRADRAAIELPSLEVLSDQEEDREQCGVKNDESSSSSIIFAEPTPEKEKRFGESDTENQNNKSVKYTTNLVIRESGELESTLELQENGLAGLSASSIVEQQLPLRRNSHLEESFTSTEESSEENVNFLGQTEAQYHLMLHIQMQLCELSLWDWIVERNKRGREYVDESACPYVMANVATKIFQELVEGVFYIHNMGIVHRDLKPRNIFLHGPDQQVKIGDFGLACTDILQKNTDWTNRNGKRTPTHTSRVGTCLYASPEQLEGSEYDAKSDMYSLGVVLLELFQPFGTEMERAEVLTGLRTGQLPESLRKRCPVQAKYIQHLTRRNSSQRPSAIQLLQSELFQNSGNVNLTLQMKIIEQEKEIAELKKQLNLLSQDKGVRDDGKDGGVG

[26] = target: Serine/threonine-protein kinase MARK2 (Homo sapiens) (UniProt Q7KZI7); settings: Compound concentration 1000.0 nM
[27] = target: Mitogen-activated protein kinase kinase kinase 11 (Homo sapiens) (UniProt Q16584); settings: Compound concentration 1000.0 nM
[28] = target: Serine/threonine-protein kinase 3 (Homo sapiens) (UniProt Q13188); settings: Compound concentration 1000.0 nM
[29] = target: Serine/threonine-protein kinase 38-like (Homo sapiens) (UniProt Q9Y2H1); settings: Compound concentration 1000.0 nM
[30] = target: Mitogen-activated protein kinase kinase kinase 4 (Homo sapiens) (UniProt Q9Y6R4); settings: Compound concentration 1000.0 nM
[31] = target: Calcium/calmodulin-dependent protein kinase type 1B (Homo sapiens) (UniProt Q6P2M8); settings: Compound concentration 1000.0 nM
[32] = target: Serine/threonine-protein kinase haspin (Homo sapiens) (UniProt Q8TF76); settings: Compound concentration 1000.0 nM
[33] = target: Homeodomain-interacting protein kinase 2 (Homo sapiens) (UniProt Q9H2X6); settings: Compound concentration 1000.0 nM
[34] = target: Serine/threonine-protein kinase Sgk2 (Homo sapiens) (UniProt Q9HBY8); settings: Compound concentration 1000.0 nM
[35] = target: Beta-2 adrenergic receptor (Rattus norvegicus) (UniProt P10608); test: BETA/R Eurofins-Panlabs selectivity data (BI); settings: Compound concentration 10.0 uM
[36] = target: Mitogen-activated protein kinase 8 (Homo sapiens) (UniProt P45983); settings: Compound concentration 1000.0 nM
[37] = target: Serine/threonine-protein kinase 25 (Homo sapiens) (UniProt O00506); settings: Compound concentration 1000.0 nM
[38] = target: Serotonin 1 (5-HT1) receptor (Rattus norvegicus) (UniProt P28564+P30940+P19327+P28565); test: 5HT1/R Eurofins-Panlabs selectivity data (BI); format: protein assay; settings: Compound concentration 10.0 uM
[39] = target: Ephrin type-B receptor 3 (Homo sapiens) (UniProt P54753); settings: Compound concentration 1000.0 nM
Ephrin type-B receptor 3 (Homo sapiens), sequence (P54753 whole entry): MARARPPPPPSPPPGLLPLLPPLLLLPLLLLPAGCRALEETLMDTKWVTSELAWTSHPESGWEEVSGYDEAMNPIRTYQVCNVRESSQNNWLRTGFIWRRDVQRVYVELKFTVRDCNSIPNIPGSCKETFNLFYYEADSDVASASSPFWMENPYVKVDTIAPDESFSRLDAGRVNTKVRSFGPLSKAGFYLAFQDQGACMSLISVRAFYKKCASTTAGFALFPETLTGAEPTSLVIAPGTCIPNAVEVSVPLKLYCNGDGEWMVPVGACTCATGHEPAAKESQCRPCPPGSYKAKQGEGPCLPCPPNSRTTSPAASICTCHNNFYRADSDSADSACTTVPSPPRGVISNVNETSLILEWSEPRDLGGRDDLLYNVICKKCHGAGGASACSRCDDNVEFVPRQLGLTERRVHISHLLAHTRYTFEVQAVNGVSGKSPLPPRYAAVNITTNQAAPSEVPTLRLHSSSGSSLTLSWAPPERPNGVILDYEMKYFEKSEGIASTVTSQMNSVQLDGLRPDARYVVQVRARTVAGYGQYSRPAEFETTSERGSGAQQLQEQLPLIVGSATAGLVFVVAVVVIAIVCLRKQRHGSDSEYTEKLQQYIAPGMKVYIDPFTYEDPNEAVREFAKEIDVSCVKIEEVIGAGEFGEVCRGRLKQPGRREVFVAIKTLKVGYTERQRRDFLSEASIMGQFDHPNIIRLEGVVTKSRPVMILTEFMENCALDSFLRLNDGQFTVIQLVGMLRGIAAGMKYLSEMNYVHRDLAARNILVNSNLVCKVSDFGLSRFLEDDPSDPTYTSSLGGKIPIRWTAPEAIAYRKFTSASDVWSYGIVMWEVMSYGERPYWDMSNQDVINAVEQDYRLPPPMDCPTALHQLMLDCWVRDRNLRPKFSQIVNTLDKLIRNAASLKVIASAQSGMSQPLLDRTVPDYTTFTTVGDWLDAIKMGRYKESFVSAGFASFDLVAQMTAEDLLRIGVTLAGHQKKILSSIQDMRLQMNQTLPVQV

[40] = target: Serine/threonine-protein kinase D2 (Homo sapiens) (UniProt Q9BZL6); settings: Compound concentration 1000.0 nM
[41] = target: Calcium/calmodulin-dependent protein kinase type II subunit gamma (Homo sapiens) (UniProt Q13555); settings: Compound concentration 1000.0 nM
[42] = target: Mast/stem cell growth factor receptor Kit (Homo sapiens) (UniProt P10721); settings: Compound concentration 1000.0 nM
[43] = target: Serine/threonine-protein kinase Nek10 (Homo sapiens) (UniProt Q6ZWH5); settings: Compound concentration 1000.0 nM
[44] = target: Tyrosine-protein kinase Yes (Homo sapiens) (UniProt P07947); settings: Compound concentration 1000.0 nM
[45] = target: Casein kinase I isoform gamma-1 (Homo sapiens) (UniProt Q9HCP0); settings: Compound concentration 1000.0 nM

CCOCCn1cc(C(=O)Nc2ccc(-n3nc(-c4cccnc4)cc3C(F)(F)F)cn2)ccc1=O [BI 1935]
residual activity [1]: 100% | residual activity [2]: 100% | residual activity [3]: 100% | residual activity [4]: 75% | residual activity [5]: 100% | residual activity [6]: 89% | residual activity [7]: 100% | residual activity [8]: 93% | residual activity [9]: 100% | residual activity [10]: 97% | residual activity [11]: 100% | residual activity [12]: 100% | inhibition [13]: 0.593% | residual activity [14]: 100% | residual activity [15]: 90% | residual activity [16]: 100% | residual activity [17]: 100% | activity at 10 µM [18]: 27% | residual activity [19]: 83% | residual activity [20]: 100% | residual activity [21]: 163% | residual activity [22]: 74% | residual activity [23]: 100% | residual activity [24]: 97% | residual activity [25]: 84% | residual activity [26]: 100% | residual activity [27]: 100% | residual activity [28]: 100% | residual activity [29]: 66% | residual activity [30]: 59% | residual activity [31]: 79% | residual activity [32]: 100% | residual activity [33]: 100% | residual activity [34]: 100% | residual activity [35]: 98% | residual activity [36]: 72% | residual activity [37]: 95% | residual activity [38]: 117% | residual activity [39]: 89% | residual activity [40]: 100% | residual activity [41]: 100% | residual activity [42]: 89% | residual activity [43]: 94% | residual activity [44]: 85% | residual activity [45]: 100%
